Experimental data as given in patent publication US20140120060A1, “TREATMENT OF RHEUMATOID ARTHRITIS AND ASTHMA USING PI3 KINASE INHIBITORS” (INFINITY PHARMACEUTICALS, INC., priority 2012, published 2014).

Tested on: B cell
Assay: B cell proliferation
Type: cell-based

SMILES	EC50
Cc1cccc2cc(Cn3nc(-c4cn[nH]c4)c4c(N)ncnc43)n(-c3ccccc3C(C)C)c(=O)c12 [Compound 185]	< 100 nM
Cc1ccccc1-n1c(Cn2nc(-c3cn[nH]c3)c3c(N)ncnc32)cc2ccccc2c1=O [Compound 187]	< 100 nM
Cc1cccc2cc(Cn3nc(-c4cn[nH]c4)c4c(N)ncnc43)n(-c3ccccc3Cl)c(=O)c12 [Compound 188]	< 100 nM
CCc1ccccc1-n1c(Cn2nc(-c3cn[nH]c3)c3c(N)ncnc32)cc2cccc(C)c2c1=O [Compound 190]	< 100 nM
Cc1ccccc1-n1c(C(C)Nc2ncnc3[nH]cnc23)cc2cccc(C)c2c1=O (centres unmarked) [Compound 191]	< 100 nM
Cc1cccc2cc([C@@H](C)Nc3ncnc4[nH]cnc34)n(-c3ccccc3)c(=O)c12 [Compound 195]	< 1000 nM
Cc1cccc2cc([C@H](C)Nc3ncnc4[nH]cnc34)n(-c3ccccc3)c(=O)c12 [Compound 196]	< 100 nM
Cc1cccc2cc([C@@H](C)Nc3ncnc4[nH]cnc34)n(C3CCC3)c(=O)c12 [Compound 197]	< 10000 nM
Cc1cccc2cc([C@H](C)Nc3ncnc4[nH]cnc34)n(C3CCC3)c(=O)c12 [Compound 198]	< 100 nM
Cc1cccc2cc([C@@H](C)Nc3ncnc4[nH]cnc34)n(C3CC3)c(=O)c12 [Compound 199]	> 10000 nM
Cc1cccc2cc([C@H](C)Nc3ncnc4[nH]cnc34)n(C3CC3)c(=O)c12 [Compound 200]	< 100 nM
Cc1cccc2cc(Cn3nc(-c4ccc5oc(N)nc5c4)c4c(N)ncnc43)n(C3CC3)c(=O)c12 [Compound 201]	< 100 nM
CCC(Nc1ncnc2[nH]cnc12)c1cc2cccc(C)c2c(=O)n1-c1ccccc1C (centres unmarked) [Compound 202]	< 100 nM
Cc1cccc2cc(C(C)Nc3ncnc4[nH]cnc34)n(C3CC3)c(=O)c12 (centres unmarked) [Compound 204]	< 100 nM
Cc1cccc2cc(Cn3nc(-c4ccc5oc(N)nc5c4)c4c(N)ncnc43)n(-c3ccccc3)c(=O)c12 [Compound 205]	< 100 nM
Cc1cccc2cc(Cn3nc(-c4cn[nH]c4)c4c(N)ncnc43)n(-c3ccccc3)c(=O)c12 [Compound 206]	< 100 nM
Cc1ccccc1-n1c(Cn2nc(-c3nn[nH]n3)c3c(N)ncnc32)cc2cccc(C)c2c1=O [Compound 207]	< 10000 nM
Cc1cccc2cc(Cn3nc(-c4ccc5oc(N)nc5c4)c4c(N)ncnc43)n(C3CCC3)c(=O)c12 [Compound 208]	< 100 nM
Cc1cccc2cc(C(C)Nc3ncnc4[nH]cnc34)n(C(C)C)c(=O)c12 (centres unmarked) [Compound 209]	< 100 nM
Cc1cccc2cc(C(C)Nc3ncnc4[nH]cnc34)n(-c3ccccc3)c(=O)c12 (centres unmarked) [Compound 210]	< 100 nM
CCC(Nc1ncnc2[nH]cnc12)c1cc2cccc(C)c2c(=O)n1-c1ccccc1 (centres unmarked) [Compound 211]	< 100 nM
CCC(Nc1ncnc2[nH]cnc12)c1cc2cccc(C)c2c(=O)n1C1CCC1 (centres unmarked) [Compound 212]	< 1000 nM
Cc1cccc2cc(C(C)Nc3ncnc4[nH]cnc34)n(-c3ccc(F)cc3)c(=O)c12 (centres unmarked) [Compound 213]	< 100 nM
Cc1cccc2cc(Cn3nc(-c4cn[nH]c4)c4c(N)ncnc43)n(-c3ccccc3C(F)(F)F)c(=O)c12 [Compound 214]	< 100 nM
Cc1cccc2cc(C(C)Nc3ncnc4[nH]cnc34)n(C3CCC3)c(=O)c12 (centres unmarked) [Compound 215]	< 100 nM

SMILES	EC50
Cc1cccc2cc(C(C)Nc3ncnc4[nH]cnc34)n(-c3c(F)cccc3F)c(=O)c12 (centres unmarked) [Compound 216]	< 100 nM
CCC(Nc1ncnc2[nH]cnc12)c1cc2cccc(C)c2c(=O)n1C(C)C (centres unmarked) [Compound 219]	< 100 nM
CC(Nc1ncnc2[nH]cnc12)c1cc2ccccc2c(=O)n1-c1ccccc1 (centres unmarked) [Compound 220]	< 100 nM
CCC(Nc1ncnc2[nH]cnc12)c1cc2ccccc2c(=O)n1-c1ccccc1 (centres unmarked) [Compound 221]	< 100 nM
Cc1cccc2cc(C(C)Nc3ncnc4[nH]cnc34)n(-c3cc(F)cc(F)c3)c(=O)c12 (centres unmarked) [Compound 222]	< 100 nM
CCC(Nc1ncnc2[nH]cnc12)c1cc2cccc(C)c2c(=O)n1-c1ccc(F)cc1 (centres unmarked) [Compound 223]	< 100 nM
CCC(Nc1ncnc2[nH]cnc12)c1cc2cccc(C)c2c(=O)n1-c1cc(F)cc(F)c1 (centres unmarked) [Compound 224]	< 100 nM
Cc1cccc2cc(C(C)Nc3ncnc4[nH]cnc34)n(C3CCN(C)CC3)c(=O)c12 (centres unmarked) [Compound 227]	< 100 nM
CCC(Nc1ncnc2[nH]cnc12)c1cc2cccc(C)c2c(=O)n1C1CCN(C)CC1 (centres unmarked) [Compound 228]	< 100 nM
Cc1cccc2cc(C(C)Nc3ncnc4[nH]cnc34)n(-c3cccc(F)c3)c(=O)c12 (centres unmarked) [Compound 229]	< 100 nM
Cc1cccc2cc([C@H](C)Nc3ncnc4[nH]cnc34)n(C(C)C)c(=O)c12 [Compound 230]	< 100 nM
Cc1cccc2cc(C(C)Nc3ncnc4[nH]cnc34)n(C3CCCC3)c(=O)c12 (centres unmarked) [Compound 231]	< 100 nM
Cc1cccc2cc(C(C)Nc3ncnc4[nH]cnc34)n(CCN3CCOCC3)c(=O)c12 (centres unmarked) [Compound 232]	< 100 nM
Cc1cccc2cc(C(C)Nc3ncnc4[nH]cnc34)n(CCN3CCCC3)c(=O)c12 (centres unmarked) [Compound 233]	< 100 nM
Cc1cccc2cc(C(C)Nc3ncnc4[nH]cnc34)n(C3CCOCC3)c(=O)c12 (centres unmarked) [Compound 234]	< 100 nM
Cc1cccc2cc(Cn3nc(-c4ccc5nc(N)oc5c4)c4c(N)ncnc43)n(-c3ccccc3)c(=O)c12 [Compound 235]	< 10000 nM
CC(Nc1ncnc2[nH]cnc12)c1cc2cccc(Cl)c2c(=O)n1-c1ccccc1 (centres unmarked) [Compound 237]	< 100 nM
Cc1ccccc1-n1c(Cn2nc(-c3ccc4nc(N)oc4c3)c3c(N)ncnc32)cc2cccc(C)c2c1=O [Compound 243]	< 1000 nM
Cc1cccc2cc([C@H](C)Nc3nc(Cl)nc4[nH]cnc34)n(-c3ccccc3)c(=O)c12 [Compound 244]	< 100 nM
Cc1cccc2cc([C@H](C)Nc3nc(F)nc4[nH]cnc34)n(-c3ccccc3)c(=O)c12 [Compound 245]	< 100 nM
Cc1cccc2cc([C@H](C)Nc3ncnc4[nH]ccc34)n(-c3ccccc3)c(=O)c12 [Compound 247]	< 100 nM
Cc1cccc2cc([C@H](C)Nc3nc(Cl)ncc3Cl)n(-c3ccccc3)c(=O)c12 [Compound 248]	< 100 nM
Cc1cccc2cc([C@H](C)Nc3nc(N)ncc3Cl)n(-c3ccccc3)c(=O)c12 [Compound 249]	< 100 nM
CC(=O)Nc1nc2cc(-c3nn(Cc4cc5cccc(C)c5c(=O)n4-c4ccccc4C)c4ncnc(N)c34)ccc2o1 [Compound 251]	< 100 nM
Cc1cccc2cc(Cn3nc(-c4ccc5nc(N)sc5c4)c4c(N)ncnc43)n(-c3ccccc3)c(=O)c12 [Compound 252]	< 100 nM

SMILES	EC50
CC(=O)Nc1nc2cc(-c3nn(Cc4cc5cccc(C)c5c(=O)n4-c4ccccc4)c4ncnc(N)c34)ccc2o1 [Compound 253]	< 100 nM
Cc1cccc2cc([C@H](C)Nc3ncnc4[nH]cc(F)c34)n(-c3ccccc3)c(=O)c12 [Compound 254]	< 100 nM
Cc1cccc2cc([C@H](C)Nc3ncnc4[nH]nc(C#N)c34)n(-c3ccccc3)c(=O)c12 [Compound 255]	< 100 nM
Cc1cccc2cc([C@H](C)Nc3ncnc4[nH]nc(C(N)=O)c34)n(-c3ccccc3)c(=O)c12 [Compound 256]	< 100 nM
Cc1cccc2cc([C@H](C)Nc3ncnc4[nH]cc(Br)c34)n(-c3ccccc3)c(=O)c12 [Compound 257]	< 100 nM
C[C@H](Nc1ncnc2[nH]cnc12)c1cc2cccc(Cl)c2c(=O)n1C1CC1 [Compound 270]	< 100 nM
Cc1ccccc1-n1c(Cn2nc(-c3ccc4sc(N)nc4c3)c3c(N)ncnc32)cc2cccc(C)c2c1=O [Compound 276]	< 100 nM
Cc1cccc2cc(Cn3nc(-c4ccc5sc(N)nc5c4)c4c(N)ncnc43)n(-c3ccccc3)c(=O)c12 [Compound 277]	< 100 nM
Cc1cccc2cc([C@H](C)Nc3ncnc4[nH]cc(F)c34)n(C3CC3)c(=O)c12 [Compound 278]	< 100 nM
Cc1cccc2cc([C@H](C)Nc3ncnc4[nH]cc(C#N)c34)n(C3CC3)c(=O)c12 [Compound 289]	< 100 nM
Cc1cccc2cc([C@H](C)Nc3ncnc4[nH]cnc34)n(-c3cccc(F)c3)c(=O)c12 [Compound 290]	< 100 nM
CCc1nn(Cc2cc3cccc(C)c3c(=O)n2-c2ccccc2C)c2ncnc(N)c12 [Compound 294]	< 1000 nM
Cc1ccccc1-n1c(Cn2nc(-c3ccc4nc(N)[nH]c4c3)c3c(N)ncnc32)cc2cccc(C)c2c1=O [Compound 295]	< 100 nM
CC(=O)Nc1nc2ccc(-c3nn(Cc4cc5cccc(C)c5c(=O)n4-c4ccccc4C)c4ncnc(N)c34)cc2[nH]1 [Compound 296]	< 100 nM
Cc1ccccc1-n1c(Cn2nc(C(N)=O)c3c(N)ncnc32)cc2cccc(C)c2c1=O [Compound 298]	< 100 nM
Cc1ccccc1-n1c(Cn2nc(C(=O)NO)c3c(N)ncnc32)cc2cccc(C)c2c1=O [Compound 300]	< 100 nM
C=Cc1nn(Cc2cc3cccc(C)c3c(=O)n2-c2ccccc2)c2ncnc(N)c12 [Compound 301]	< 100 nM
Cc1cccc2cc(Cn3nc(-c4ccc5nc(N)[nH]c5c4)c4c(N)ncnc43)n(-c3ccccc3)c(=O)c12 [Compound 302]	< 100 nM
CCc1nn(Cc2cc3cccc(C)c3c(=O)n2-c2ccccc2)c2ncnc(N)c12 [Compound 303]	< 100 nM
Cc1ccccc1-n1c(Cn2nc(C(F)F)c3c(N)ncnc32)cc2cccc(C)c2c1=O [Compound 306]	< 100 nM
Cc1cccc2cc(Cn3nc(C(F)F)c4c(N)ncnc43)n(-c3ccccc3)c(=O)c12 [Compound 308]	< 100 nM
Cc1ccccc1-n1c(Cn2nc(CF)c3c(N)ncnc32)cc2cccc(C)c2c1=O [Compound 310]	< 100 nM
Cc1cccc2cc(Cn3nc(CF)c4c(N)ncnc43)n(-c3ccccc3)c(=O)c12 [Compound 311]	< 100 nM
Cc1ccccc1-n1c(Cn2nc(CC#N)c3c(N)ncnc32)cc2cccc(C)c2c1=O [Compound 312]	< 1000 nM
